Data: patent US7238685B2, “Benzo-fused heterocycles as endothelin antagonists” (Actelion Pharmaceuticals Ltd., priority 2001, dated 2007)
Like-named read-outs stand apart in the source and are kept apart here.

Assays:
[1] = target: T1, rat tracheal rings (ETB receptors) (Rattus norvegicus, UniProt P21451); assay: Inhibition of sarafotoxin S6c-induced contractions on isolated rat tracheal rings
T1 construct: from tissue; host or cells: tracheal rings of adult Wistar rats, epithelium removed
T1 sequence (P21451 27-442): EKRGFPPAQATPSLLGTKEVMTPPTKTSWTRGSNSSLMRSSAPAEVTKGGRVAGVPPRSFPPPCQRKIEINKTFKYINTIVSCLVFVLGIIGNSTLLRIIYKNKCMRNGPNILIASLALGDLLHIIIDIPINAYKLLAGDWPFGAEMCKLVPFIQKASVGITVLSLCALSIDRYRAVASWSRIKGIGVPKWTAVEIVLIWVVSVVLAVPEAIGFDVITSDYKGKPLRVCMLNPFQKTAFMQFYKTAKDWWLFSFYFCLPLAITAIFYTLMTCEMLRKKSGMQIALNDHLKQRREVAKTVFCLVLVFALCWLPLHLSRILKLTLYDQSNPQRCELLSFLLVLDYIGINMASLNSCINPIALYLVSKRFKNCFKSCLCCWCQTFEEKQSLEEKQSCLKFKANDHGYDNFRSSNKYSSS
Experimental: 2) Inhibition of Endothelin-induced Contractions on Isolated Rat Aortic Rings (ETA Receptors) and Rat Tracheal Rings (ETB Receptors):
The functional inhibitory potency of the endothelin antagonists was assessed by their inhibition of the contraction induced by endothelin-1 on rat aortic rings (ETA receptors) and of the contraction induced by sarafotoxin S6c on rat tracheal rings (ETB receptors). Adult Wistar rats were anesthetized and exsanguinated. The thoracic aorta or trachea were excised, dissected and cut in 3–5 mm rings. The endothelium/epithelium was removed by gentle rubbing of the intimal surface. Each ring was suspended in a 10 ml isolated organ bath filled with Krebs-Henseleit solution (in mM; NaCl 115, KCl 4.7, MgSO4 1.2, KH2PO4 1.5, NaHCO3 25, CaCl2 2.5, glucose 10) kept at 37° C. and gassed with 95% O2 and 5% CO2. The rings were connected to force transducers and isometric tension was recorded (EMKA Technologies SA, Paris, France). The rings were stretched to a resting tension of 3 g (aorta) or 2 g (trachea). […] The functional inhibitory potency of the test compound was assessed by calculating the concentration ratio, i.e. the shift to the right of the EC50 induced by different concentrations of test compound. EC50 is the concentration of endothelin needed to get a half-maximal contraction, pA2 is the negative logarithm of the antagonist concentration which induces a two-fold shift in the EC50 value.

[2] = target: T2, rat aortic rings (ETA receptors) (Rattus norvegicus, UniProt P26684); assay: Inhibition of endothelin-1-induced contractions on isolated rat aortic rings
T2 construct: from tissue; host or cells: thoracic aorta rings of adult Wistar rats, endothelium removed
T2 sequence (P26684 21-426): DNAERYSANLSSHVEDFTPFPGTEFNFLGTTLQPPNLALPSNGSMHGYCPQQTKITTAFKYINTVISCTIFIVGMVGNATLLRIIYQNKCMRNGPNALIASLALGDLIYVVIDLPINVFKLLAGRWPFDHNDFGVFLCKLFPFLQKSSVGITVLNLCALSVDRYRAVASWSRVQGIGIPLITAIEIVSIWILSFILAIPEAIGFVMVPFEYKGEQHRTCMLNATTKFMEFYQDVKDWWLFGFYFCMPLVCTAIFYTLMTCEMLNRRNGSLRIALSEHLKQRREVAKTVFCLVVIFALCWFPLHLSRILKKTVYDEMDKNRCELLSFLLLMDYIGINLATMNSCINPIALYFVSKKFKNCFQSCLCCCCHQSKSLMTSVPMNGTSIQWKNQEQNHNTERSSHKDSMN

[3] = target: T3, human recombinant ETA receptors (Homo sapiens, UniProt P25101); assay: Inhibition of endothelin binding to membranes from CHO cells carrying human ET receptors (ETA); conditions: read-out: IC50 ETA
T3 construct: expressed in transfected cells; host or cells: CHO cells (microsomal membranes)
T3 sequence (P25101 21-427): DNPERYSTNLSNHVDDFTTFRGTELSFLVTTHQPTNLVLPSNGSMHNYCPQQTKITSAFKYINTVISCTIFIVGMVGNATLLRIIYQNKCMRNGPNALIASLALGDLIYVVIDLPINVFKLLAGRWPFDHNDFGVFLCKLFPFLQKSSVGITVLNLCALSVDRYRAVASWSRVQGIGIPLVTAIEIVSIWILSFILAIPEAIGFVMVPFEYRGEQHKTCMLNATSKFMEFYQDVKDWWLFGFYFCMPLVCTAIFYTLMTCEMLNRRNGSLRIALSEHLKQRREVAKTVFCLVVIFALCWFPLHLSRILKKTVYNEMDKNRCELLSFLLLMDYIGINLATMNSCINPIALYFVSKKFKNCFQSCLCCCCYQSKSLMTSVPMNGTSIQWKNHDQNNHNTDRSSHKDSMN

[4] = target: T4, human recombinant ETB receptors (Homo sapiens, UniProt P24530); assay: Inhibition of endothelin binding to membranes from CHO cells carrying human ET receptors (ETB); conditions: read-out: IC50 ETB
T4 construct: expressed in transfected cells; host or cells: CHO cells (microsomal membranes)
T4 sequence (P24530 27-442): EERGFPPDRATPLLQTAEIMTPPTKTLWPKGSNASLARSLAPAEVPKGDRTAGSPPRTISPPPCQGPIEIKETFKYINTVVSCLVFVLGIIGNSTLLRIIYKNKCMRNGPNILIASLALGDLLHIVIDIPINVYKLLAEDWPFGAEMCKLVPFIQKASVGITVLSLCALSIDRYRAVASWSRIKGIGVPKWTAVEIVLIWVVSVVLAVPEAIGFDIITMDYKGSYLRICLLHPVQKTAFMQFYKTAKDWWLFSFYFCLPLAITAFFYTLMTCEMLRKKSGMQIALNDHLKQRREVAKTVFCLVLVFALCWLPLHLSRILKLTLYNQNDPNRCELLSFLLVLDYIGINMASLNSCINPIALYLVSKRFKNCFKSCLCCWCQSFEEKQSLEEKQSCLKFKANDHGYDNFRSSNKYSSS

In the case of `COc1cc(OC)nc(O[C@H](C(=O)O)[C@@]2(c3ccccc3)NCC(=O)N(Cc3c(F)cc(F)cc3F)c3ccccc32)n1` (racemic) [Example 48], the Kb [1] is reported as 525 nM and the Kb ([2]; read-out: pA2 (aortic rings) (converted)) is reported as 6.46 nM.

For `Cc1cc(C)nc(O[C@H](C(=O)O)[C@@]2(c3ccccc3)NCC(=O)N(Cc3c(F)cc(F)cc3F)c3ccccc32)n1` (racemic) [Example 107, (±)-(S*)-(4,6-dimethyl-pyrimidin-2-yloxy)-[(5S*)-2-oxo-5-phenyl-1-(2,4,6-trifluoro-benzyl)-2,3,4,5-tetrahydro-1H-benzo[e][1,4]diazepin-5-yl]-acetic acid], the Kb [1] was 661 nM, the Kb [2] was 6.61 nM and the IC50 [3] was 1 nM. It also gave an IC50 [4] of 42 nM.

For `Cc1cc(C)nc(O[C@H](C(=O)O)[C@@]2(c3ccccc3)NCC(=O)N(Cc3c(Cl)cccc3Cl)c3ccccc32)n1` (racemic) [Example 115], the Kb [1] was 27.5 nM, the Kb [2] was 2.82 nM and the IC50 [3] was 1 nM. For the same compound, the IC50 [4] was 3 nM.

For `Cc1cc(C)nc(O[C@H](C(=O)O)[C@@]2(c3cccc(-c4ccccc4)c3)NCC(=O)N(Cc3c(F)cc(F)cc3F)c3ccccc32)n1` (racemic) [Example 211, (±)-(S*)-[(5S*)-5-biphenyl-3-yl-2-oxo-1-(2,4,6-trifluoro-benzyl)-2,3,4,5-tetrahydro-1H-benzo[e][1,4]di-azepin-5-yl]-(4,6-dimethyl-pyrimidin-2-yloxy)-acetic acid], the Kb [1] was 85.1 nM, the Kb [2] was 0.912 nM and the IC50 [3] was 6 nM. For the same compound, the IC50 [4] was 62 nM.
